Here are results for 30 compounds from patent US7875618B2, “Substituted imidazo[1,5-a]quinoxalines useful as inhibitors of phosphodiesterase 10 for the treatment of neurological and other disorders” (Wyeth, priority 2007, dated 2011).

One data set addresses T1, human recombinant PDE10A (Homo sapiens, UniProt Q9Y233).
T1 construct: made in house; host or cells: SF21 insect cells (baculovirus)
Description: Inhibition of human recombinant PDE10A ([3H]-cAMP SPA, Method B). It is filed as biochemical. Conditions: read-out: PDE10 inhibition IC50 [nM] PDE10A human. The method, then:
The gene was than inserted into a baculovirus vector, ligated with the baculovirus DNA. The enzyme-protein was expressed in SF21-cells. The enzyme was isolated from these cells by harvesting the cells by a centrifugation at 200 g to collect the cells. The cells were resuspended in 50 mM Tris-HCl/5 mM MgCl2 buffer (pH=7.4) and lysed by a sonication of the cells. The cytosolic PDE10A was obtained by a centrifugation at 48000 g for 1 h in the supernatant and stored at −70° C. PDE10 activity was determined in a one step procedure in microtiterplates. […] Nonspecific activity was tested without the enzyme. The reaction was initiated by addition of the substrate solution and was carried out at 37° C. for 30 minutes. Enzymatic activity was stopped by addition of 25 μl YSi-SPA-beads (Amersham-Pharmacia). One hour later the mixture was measured in a liquid scintillation counter for microtiterplates (Microbeta Trilux). To pipette the incubation mixture a robot Biomek (Fa. Beckman) is used. […] For determination of IC50 values the Hill-plot, 2-parameter-model, was used.

In a further data set the target is PDE10 from pig striatum (Sus scrofa, UniProt A0A287B941). Description: Inhibition of PDE10 from pig striatum ([3H]-cAMP SPA, Methods A and B). It is filed as biochemical. Conditions: PDE10 pig. The protocol:
Striatum from male Wistar rats (180-200 g), male hybrid pigs (150 kg) and male guinea pigs (CRL (HA), 500 g) respectively were collected and frozen at −70° C. At the day of preparation 0.5 g striatum was homogenised in 10 ml 50 mM Tris/Mg-buffer at 4° C. and centrifuged for one hour at 100000 g. The supernatant is called the cytosolic fraction and was removed and stored on ice. The pellet was resuspended in the same buffer, but containing 1% Triton and incubated for 45 min at 4° C. Both fractions were independently applied onto a 5 ml Hi Trap™ QHP column at the Äkta-FPLC. After washing the columns the bound PDE protein was eluted with an increasing sodium chloride gradient (0 mM-500 mM sodium chloride) in 50 mM Tris/Mg-buffer at 4° C. for the cytosolic fraction and in the presence of 1% Triton for the membrane fraction. […] The fractions with PDE10-activity were pooled and frozen in aliquots until use at −20° C. PDE10 activity was determined in a one step procedure in microtiter plates. […] Nonspecific activity was tested without the enzyme. The reaction was initiated by addition of the substrate solution and was carried out at 37° C. for 30 minutes. Enzymatic activity was stopped by addition of 25 μl YSi-SPA-beads (Amersham-Pharmacia). One hour later the mixture was measured in a liquid scintillation counter for microtiter plates (Microbeta Trilux). To pipette the incubation mixture a robot Biomek (Fa. Beckman) is used. […] For determination of IC50 values the Hill-plot, 2-parameter-model, was used. […] Striatum from male hybrid pigs (150 kg) were collected and frozen at −70° C. At the day of preparation 0.5 g striatum was homogenised in 10 ml 50 mM Tris/Mg-buffer at 4° C. and centrifuged for one hour at 100000 g. The supernatant was removed and the pellet was resuspended in the same buffer, but containing 1% Triton and incubated for 45 min at 4° C. The membrane fraction was applied onto a 5 ml Hi Trap™ QHP column at the Äkta-FPLC. After washing the column the bound PDE protein was eluted with an increasing sodium chloride gradient (0 mM-500 mM sodium chloride) in 50 mM Tris/Mg-buffer at 4° C. in the presence of 1% Triton. […] The fractions with PDE10-activity were pooled and frozen in aliquots until use at −20° C. PDE10 activity was determined in a one step procedure in microtiterplates. […] Nonspecific activity was tested without the enzyme. The reaction was initiated by addition of the substrate solution and was carried out at 37° C. for 30 minutes. Enzymatic activity was stopped by addition of 25 μl YSi-SPA-beads (Amersham-Pharmacia). One hour later the mixture was measured in a liquid scintillation counter for microtiterplates (Microbeta Trilux). To pipette the incubation mixture a robot Biomek (Fa. Beckman) is used. […] For determination of IC50 values the Hill-plot, 2-parameter-model, was used.

T1 sequence (Q9Y233 1-779 isoform Q9Y233-1): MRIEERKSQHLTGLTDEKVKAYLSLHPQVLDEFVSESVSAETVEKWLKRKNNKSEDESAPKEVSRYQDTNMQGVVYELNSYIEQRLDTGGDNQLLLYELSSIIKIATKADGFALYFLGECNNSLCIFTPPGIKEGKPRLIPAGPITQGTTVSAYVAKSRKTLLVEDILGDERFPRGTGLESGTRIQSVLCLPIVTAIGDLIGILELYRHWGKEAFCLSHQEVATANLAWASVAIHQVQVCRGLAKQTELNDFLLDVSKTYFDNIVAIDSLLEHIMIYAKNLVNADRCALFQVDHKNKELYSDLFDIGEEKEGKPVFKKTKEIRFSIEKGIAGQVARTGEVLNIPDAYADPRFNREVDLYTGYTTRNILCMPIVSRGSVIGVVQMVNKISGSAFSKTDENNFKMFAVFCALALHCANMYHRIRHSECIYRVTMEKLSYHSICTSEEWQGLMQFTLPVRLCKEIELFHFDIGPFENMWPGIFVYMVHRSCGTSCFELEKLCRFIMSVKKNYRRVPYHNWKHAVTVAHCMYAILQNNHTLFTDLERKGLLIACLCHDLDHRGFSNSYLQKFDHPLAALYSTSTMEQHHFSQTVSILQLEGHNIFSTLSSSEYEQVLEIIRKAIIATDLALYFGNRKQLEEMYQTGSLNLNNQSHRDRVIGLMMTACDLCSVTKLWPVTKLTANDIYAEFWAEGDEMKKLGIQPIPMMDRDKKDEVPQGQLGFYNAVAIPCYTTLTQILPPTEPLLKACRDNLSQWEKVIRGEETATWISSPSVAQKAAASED

One may read the melting point as the temperature of the solid-liquid transition. One may read the IC50 as the midpoint of a concentration-inhibition curve. Turning to `CCCc1nc(C)c2c(C)nc3ccc(OC)cc3n12` [Example 16, 3,4-Dimethyl-8-methoxy-1-propyl-imidazo(1,5-a)quinoxaline], the melting point lay in the range of 99 to 101 °C. For the same compound, the IC50 on human recombinant PDE10A lay within 10 to 100 nM.

On to `CCc1nc(C)c2c(N)nc3ccc(F)cc3n12` [Example 5, 1-Ethyl-8-fluoro-3-methyl-imidazo(1,5-a)quinoxalin-4-ylamine], for which the melting point fell in the range of 238 to 239 °C. In addition, the IC50 against PDE10 from pig striatum was at least 100 nM.

For the compound `CCCc1nc(C)c2c(N)nc3ccc(OC)cc3n12` [Example 7, 8-Methoxy-3-methyl-1-propyl-imidazo(1,5-a)quinoxalin-4-ylamine], the melting point was in the range of 201 to 203 °C. Moreover, the IC50 on human recombinant PDE10A fell in the range of 10 to 100 nM.

Regarding `CCCc1nc(C)c2c(N)nc3ccccc3n12` [Example 4, 3-Methyl-1-propyl-imidazo(1,5-a)quinoxalin-4-ylamine], the melting point fell in the range of 187 to 188 °C. Moreover, the 50% inhibitory concentration (IC50) on PDE10 from pig striatum was at least 100 nM.

In turn, `CCCc1nc(C)c2c(Cl)nc3ccccc3n12` [Intermediate B4, 4-Chloro-3-methyl-1-propyl-imidazo(1,5-a)quinoxaline] registered a melting point of 99 to 101 °C. At PDE10 from pig striatum, this compound yielded a 50% inhibitory concentration (IC50) of 10 to 100 nM.

In the case of `Cc1nc(C2CCCCC2)n2c1c(Cl)nc1ccc(F)cc12` [Intermediate B7, 4-Chloro-1-cyclohexyl-8-fluoro-3-methyl-imidazo(1,5-a)quinoxaline], the melting point is 205 to 210 °C. The IC50 at PDE10 from pig striatum was 10 to 100 nM.

As for `CCCc1nc(C)c2c(N)nc3ccc(F)cc3n12` [Example 6, 8-Fluoro-3-methyl-1-propyl-imidazo(1,5-a)quinoxalin-4-ylamine], the melting point is 240 to 243 °C. Moreover, the IC50 at PDE10 from pig striatum lay within 10 to 100 nM.

As to `CCc1nc(C)c2c(C)nc3ccccc3n12` [Example 11, 3,4-Dimethyl-1-ethyl-imidazo(1,5-a)quinoxaline], the melting point lay within 123 to 125 °C. For the same compound, the IC50 against PDE10 from pig striatum was at least 100 nM.

Compound `CCc1nc(C)c2c(Cl)nc3ccccc3n12` [Intermediate B3] registered a melting point of 125 to 128 °C. Further, the half-inhibitory concentration (IC50) on PDE10 from pig striatum lay within 10 to 100 nM.

Compound `CCc1nc(C)c2c(Cl)nc3ccc(F)cc3n12` [Intermediate B5] came in with a melting point of 157 to 160 °C. Moreover, on PDE10 from pig striatum, the IC50 was in the range of 10 to 100 nM.

Turning to `Cc1ccccc1-c1nc(C)c2c(C)nc3c(O)cc(O)cc3n12` [Example 54, 6,8-Dihydroxy-3,4-dimethyl-1-(2-methylphenyl)-imidazo[1,5-a]quinoxaline], the IC50 is at most 10 nM on PDE10 from pig striatum and 10 to 100 nM on human recombinant PDE10A.

Consider `CCc1nc(C)c2c(N)nc3ccccc3n12` [Example 3, 1-Ethyl-3-methyl-imidazo(1,5-a)quinoxalin-4-ylamine], for which the melting point was 192 to 195 °C. This compound had a half-maximal inhibitory concentration (IC50) against PDE10 from pig striatum of at least 100 nM.

As for `Cc1nc(-c2ccccc2Cl)n2c1c(C)nc1cc(OCc3ccc4ccccc4n3)ccc12` [Example 58, 1-(2-Chloro-phenyl)-7-(quinolin-2-ylmethoxy)-3,4-dimethyl-imidazo(1,5-a)quinoxaline], the IC50 on PDE10 from pig striatum and at human recombinant PDE10A was at most 10 nM throughout.

For `CCc1nc(C)c2c(C)nc3ccc(N4CCCCC4)cc3n12` [Example 17, 3,4-Dimethyl-1-ethyl-8-(piperidin-1-yl)-imidazo(1,5-a)quinoxaline], the melting point lay in the range of 132 to 134 °C. In addition, on PDE10 from pig striatum, the half-inhibitory concentration (IC50) lay in the range of 10 to 100 nM.

Regarding “7-Methoxy-3-methyl-1-propyl-imidazo[1,5-a]quinoxalin-4-ylamine [Example 41]”, the IC50 on PDE10 from pig striatum and on human recombinant PDE10A was 10 to 100 nM in each case.

Turning to `COc1ccc2nc(Cl)c3c(C)nc(C4CCCCC4)n3c2c1` [Intermediate B11], the melting point was in the range of 212 to 215 °C.

Compound `COc1ccc2nc(N)c3c(C)nc(C4CCCCC4)n3c2c1` [Example 38, 1-Cyclohexyl-8-methoxy-3-methyl-imidazo[1,5-a]quinoxalin-4-ylamine] had a melting point of 211 to 212 °C. For the same compound, on human recombinant PDE10A, the IC50 lay in the range of 10 to 100 nM.

With `Cc1nc(-c2ccccc2Cl)n2c1c(C)nc1cc(O)ccc12` [Example 55, 1-(2-Chlorophenyl)-3,4-dimethyl-7-hydroxy-imidazo(1,5-a)quinoxaline], the IC50 against PDE10 from pig striatum and at human recombinant PDE10A was 10 to 100 nM in each case.

With `CCCc1nc(C)c2c(N)nc3ccc(OCC4CC4)cc3n12` [Example 39, 8-Cyclopropylmethoxy-3-methyl-1-propyl-imidazo[1,5-a]quinoxalin-4-ylamine], the melting point is 163 to 167 °C. For the same compound, the IC50 at human recombinant PDE10A is 10 to 100 nM.

For `Cc1ccsc1-c1nc(C)c2c(C)nc3ccc(F)cc3n12` [Example 29, 8-Fluoro-3,4-dimethyl-1-(3-methyl-2-thienyl)imidazo[1,5-a]quinoxaline], the IC50 on PDE10 from pig striatum and on human recombinant PDE10A was 10 to 100 nM throughout.

As to `CCCc1nc(C)c2c(C)nc3c(OCC(F)(F)F)cc(OCC(F)(F)F)cc3n12` [Example 46, 3,4-Dimethyl-1-propyl-6,8-bis-(2,2,2-trifluoro-ethoxy)-imidazo[1,5-a]quinoxaline], the melting point was in the range of 200 to 206 °C. For the same compound, the IC50 at human recombinant PDE10A was at least 100 nM.

Regarding `CCCc1nc(C)c2c(Cl)nc3cc(OC)ccc3n12` [Intermediate B15], the melting point is 154 to 159 °C.

Consider `Cc1ccccc1-c1nc(C)c2c(C)nc3c(OC(F)F)cc(OC(F)F)cc3n12` [Example 56, 6,8-Bis-difluoromethoxy-3,4-dimethyl-1-(2-methylphenyl)-imidazo(1,5-a)quinoxaline], for which the IC50 against PDE10 from pig striatum and at human recombinant PDE10A was at most 10 nM in each case.

The compound `CCCc1nc(C)c2c(C)nc3cc(OC)ccc3n12` [Example 48, 7-Methoxy-3,4-dimethyl-1-propyl-imidazo[1,5-a]quinoxaline] showed a melting point of 111 to 117 °C. Further, the IC50 at human recombinant PDE10A was in the range of 10 to 100 nM.

For `Cc1nc(-c2ccccc2Cl)n2c1c(C)nc1cc(OCc3cccc([N+](=O)[O-])c3)ccc12` [Example 59, 1-(2-Chloro-phenyl)-3,4-dimethyl-7-(3-nitrobenzyloxy)-imidazo(1,5-a)quinoxaline], the IC50 is at most 10 nM against PDE10 from pig striatum and 10 to 100 nM at human recombinant PDE10A.

Take `Cc1nc(-c2ccccc2Cl)n2c1c(C)nc1ccc(F)cc12` [Example 15, 1-(2-Chlorphenyl)-3,4-dimethyl-8-fluoro-imidazo(1,5-a)quinoxaline]: the figures for the IC50 against PDE10 from pig striatum and on human recombinant PDE10A were at most 10 nM and 10 to 100 nM, respectively.

For the compound `Cc1nc(-c2ccccc2Cl)n2c1c(C)nc1cc(OCc3cccc(N)c3)ccc12` [Example 60, 7-(3-Aminobenzyloxy)-1-(2-chlorophenyl)-3,4-dimethyl-imidazo(1,5-a)quinoxaline], the IC50 is at most 10 nM against PDE10 from pig striatum and 10 to 100 nM on human recombinant PDE10A.

Consider `Cc1nc(C2CCCCC2)n2c1c(Cl)nc1ccc(OCC3CC3)cc12` [Intermediate B13], for which the melting point was 165 to 168 °C.

As for `CNC(=O)Nc1cccc(COc2ccc3c(c2)nc(C)c2c(C)nc(-c4ccccc4Cl)n23)c1` [Example 61, N-1-{3-[1-(2-Chlorophenyl)-3,4-dimethyl-imidazo(1,5-a)quinoxalin-7-yloxymethyl]-phenyl}-N′-methyl-urea], the IC50 is at most 10 nM at PDE10 from pig striatum and 10 to 100 nM at human recombinant PDE10A.

Regarding `COc1ccc2nc(C)c3c(C)nc(C4CCCCC4)n3c2c1` [Example 43, 1-Cyclohexyl-8-methoxy-3,4-dimethyl-imidazo[1,5-a]quinoxaline], the melting point is 165 to 169 °C. Further, the IC50 at human recombinant PDE10A fell in the range of 10 to 100 nM.
